Source: patent publication US8738114B2, “Systems and methods for measuring and modeling in vivo manganese ion transport in a subject” (Celtrast LLC, priority 2009, dated 2014)

Biological target: NCX (Mus musculus, UniProt P70414)
Test: In vivo MEMRI Mn^2+ efflux study with NCX inhibition by SEA0400 (dose dependent groups), pharmacokinetic Models 1-3
Details: for Mn^2+ efflux rate following inhibition of the NCX, % of the initial, pre-SEA0400 administration, rate: Model 2 prediction, maximum inhibition
[1] = Model 1, 10 mg/kg SEA0400 i.p. 1 h post-190 nmoles/g BW MnCl2
[2] = Model 1, 20 mg/kg SEA0400 i.p. 1 h post-190 nmoles/g BW MnCl2
[3] = Model 1, 34 mg/kg SEA0400 i.p. 1 h post-190 nmoles/g BW MnCl2
[4] = Model 1, 50 mg/kg SEA0400 i.p. 1 h post-190 nmoles/g BW MnCl2
[5] = Model 2, 10 mg/kg SEA0400 i.p. 1 h post-190 nmoles/g BW MnCl2
[6] = Model 2, 20 mg/kg SEA0400 i.p. 1 h post-190 nmoles/g BW MnCl2
[7] = Model 2, 34 mg/kg SEA0400 i.p. 1 h post-190 nmoles/g BW MnCl2
[8] = Model 2, 50 mg/kg SEA0400 i.p. 1 h post-190 nmoles/g BW MnCl2
[9] = Model 3, 10 mg/kg SEA0400 i.p. 1 h post-190 nmoles/g BW MnCl2
[10] = Model 3, 20 mg/kg SEA0400 i.p. 1 h post-190 nmoles/g BW MnCl2
[11] = Model 3, 34 mg/kg SEA0400 i.p. 1 h post-190 nmoles/g BW MnCl2
[12] = Model 3, 50 mg/kg SEA0400 i.p. 1 h post-190 nmoles/g BW MnCl2

Protocol: The mice were randomized into three groups for efflux studies: 1) MnCl2 dose dependent (65±0.2, 119±2, 190±3 (Control) and 283±6 nmoles/g body weight MnCl2, n=40 mice) 2) SEA0400 dose dependent (190±1 nmoles/g BW MnCl2 infusion, followed 1 hour later with an i.p. injection of 10±0.2, 20±0.2, 34±0.8 and 50±0.2 mg/kg SEA0400, n=30) 3) Myocardial infarction (MI, 190±0.1 nmoles/g BW MnCl2, n=9)
In order to model the drug pharmacokinetics of SEA0400, and therefore the Mn^2+ transport mechanisms, an equation for the drug plasma concentration (Cp) was used (Eq. [2]), commonly applied to pharmaceutical modeling:
In Eq. [2] F is the fraction of drug absorbed, Vp is the apparent volume of distribution of the drug and D is the drug dose administered. The rate parameters, kel and kabs represent the drug elimination and absorption rates respectively.
The form for the Mn^2+ transfer rate parameter k21 was given by Eq. [3], under the assumption that k21 decreases linearly with increasing SEA0400 plasma concentration, Cp, as in Eq. [2]:
Parameter k21,initial is defined as the pre-pharmaceutical administration transfer parameter, k21(t<1 h). […] All the transfer rate and pharmaceutical parameters were therefore time-independent with the exception of k0 and k21 following SEA0400 administration.
The pharmaceutical absorption and elimination half-live (t1/2abs and t1/2el respectively) are given in Eq. [4] and Eq. [5].
Solutions to the ODEs were acquired using simultaneous 4th Order Runge-Kutta numerical methods in Matlab (Nantick, Mass.). Temporal in vivo cardiac Mn^2+ content data and ex vivo blood Mn^2+ content data were fit simultaneously to acquire least square fits for the first order rate parameters, kab. Least square fits of the pharmaceutical parameters, kabs and kel were also obtained using the SEA0400 groups, assuming that kab was unchanged from the control 190 nmoles/g group. […] The only constraint made by the least square fitting technique was that the transfer rate parameters and pharmaceutical parameters were ≧0.
Least square curve fitting techniques are inherently sensitive to the initial estimates of kab. For a given initial estimate of kab the fit may converge on solutions at local minima, which may not be the global minimum. In order to minimize potential errors caused by this effect, all the models employed a global search over a wide range in parameter space to find the initial estimates of kab corresponding to lowest fit residuals. To use the most realistic initial estimates for the fitting function, simultaneous solutions were obtained for the control 190 nmoles/g heart and 50 mg/kg SEA0400 heart efflux data, as well as the corresponding blood efflux data.
For the SEA0400 groups, a similar set of simultaneous ODEs was used, with k21 modeled as a function of time (Eq. [3]).
k21total and k2comp are the total transfer rates from compartment 2 to the blood, and from compartment 2 to compartments 3 and 4, respectively. These two parameters were estimated via the modeling technique.

- kabs drug absorption rate [1]: 671 h⁻¹
- kel drug elimination rate [1]: 1.7 h⁻¹
- kabs drug absorption rate [2]: 672 h⁻¹
- kel drug elimination rate [2]: 0.51 h⁻¹
- kabs drug absorption rate [3]: 680 h⁻¹
- kel drug elimination rate [3]: 0.49 h⁻¹
- kabs drug absorption rate [4]: 66 h⁻¹
- kel drug elimination rate [4]: 0.14 h⁻¹
- kabs drug absorption rate [5]: 68 h⁻¹
- kel drug elimination rate [5]: 1.6 h⁻¹
- kabs drug absorption rate [6]: 149 h⁻¹
- kel drug elimination rate [6]: 0.47 h⁻¹
- kabs drug absorption rate [7]: 115 h⁻¹
- kel drug elimination rate [7]: 0.41 h⁻¹
- kabs drug absorption rate [8]: 118 h⁻¹
- kel drug elimination rate [8]: 0.17 h⁻¹
- Mn^2+ efflux rate following inhibition of the NCX, % of the initial, pre-SEA0400 administration, rate (10 mg/kg SEA0400): 8.2%
- Mn^2+ efflux rate following inhibition of the NCX, % of the initial, pre-SEA0400 administration, rate (20 mg/kg SEA0400): 1.8%
- Mn^2+ efflux rate following inhibition of the NCX, % of the initial, pre-SEA0400 administration, rate (35 mg/kg SEA0400): 1.6%
- Mn^2+ efflux rate following inhibition of the NCX, % of the initial, pre-SEA0400 administration, rate (50 mg/kg SEA0400): 1.0%
- kabs drug absorption rate [9]: 85 h⁻¹
- kel drug elimination rate [9]: 1.1 h⁻¹
- kabs drug absorption rate [10]: 118 h⁻¹
- kel drug elimination rate [10]: 0.44 h⁻¹
- kabs drug absorption rate [11]: 9.4 h⁻¹
- kel drug elimination rate [11]: 0.33 h⁻¹
- kabs drug absorption rate [12]: 149 h⁻¹
- kel drug elimination rate [12]: 0.06 h⁻¹
- share of Mn^2+ efflux that occurs via the NCX (model prediction, highest dose of SEA0400): approximately 99%
SMILES: CCOc1ccc(Oc2ccc(OCc3cc(F)ccc3F)cc2)c(N)c1 [SEA0400]
